Columns and labels:
SW480 cells [1] = assay: colony formation, SW480; assay type: cell-based
[2] = test system: MiaPaCa-2 pancreatic cancer cells; assay: hexoseaminidase cell proliferation assay, MiaPaCa-2; assay type: cell-based; conditions: Homo sapiens, MIA PaCa-2
Experimental: (§1) Using hexoseaminidase assay, we determined the effect of the compounds on cell proliferation. […] The IC50 value at 48 hours is below 10 μM in all the cancer cell lines.
(§2) Using hexoseaminidase assay, we determined the effect of the compounds on cell proliferation. […] The MRL16 IC50 value at 48 hours is below 0.3 μM in Colon cancer cell lines. […] Overall, the analogs can be used as chemotherapeutic agents against colon and pancreatic cancer.

[3] = test system: HCT116 colon cancer tumor xenografts; assay: HCT116 colon cancer tumor xenografts in nude mice; assay type: in vivo
Experimental: For in vivo, HCT116 cells were injected into the blanks of nude mice, after one week when there was a palpable tumor and these compounds were injected intraperitonially (5 mg/kg body weight) every day for 21 days. Tumor volumes were measured weekly. On 29th day mice were euthanized and the tumors were removed and weighed for use in histology, immunohistochemistry, and gene expression studies. Both THB and THBCD inhibited growth of the tumor. It is noted that the images of FIG. 4C are from left to right: control; THB; and THBCD.
For in vivo, HCT116 cells were injected into the blanks of nude mice, after one week when there was a palpable tumor and these compounds were injected intraperitonially (5 mg/kg body weight) every day for 21 days. Tumor volumes were measured weekly. On 29th day mice were euthanized and the tumors were removed and weighed for use in histology, immunohistochemistry, and gene expression studies. DBQ inhibited the growth of the tumor. It is noted that the images of FIG. 16C are from left to right: control; and DBQ.
FIGS. 19A and 19B show MRL 16 inhibits tumor growth, such as on colon cancer tumor xenografts. For in vivo, HCT116 cells were injected into the blanks of nude mice, after one week when there was a palpable tumor and these compounds were injected intraperitonially (2 mg/kg body weight) every day for 21 days. Tumor volumes were measured weekly. On 29th day mice were euthanized and the tumors were removed and weighed. MRL16 inhibited growth of the tumor.

[4] = test system: 253JBV bladder cancer cells; assay: hexoseaminidase cell proliferation assay, 253JBV; assay type: cell-based
Experimental: as §1

HCT116 cells [5] = assay: colony formation, HCT116; assay type: cell-based
HCT116 cells [6] = assay: cell cycle analysis, HCT116; assay type: cell-based; conditions: for cell cycle effect (in words): HCT116 cells
[7] = test system: PanC-1 pancreatic cancer cells; assay: hexoseaminidase cell proliferation assay, PanC-1; assay type: cell-based; conditions: Homo sapiens
Experimental: as §1, §2

SW480 colon cancer cells = assay: hexoseaminidase cell proliferation assay, SW480; assay type: cell-based; conditions: Homo sapiens
Excerpt: (§3) Using hexoseaminidase assay, we determined the effect of the compounds on cell proliferation. […]
(§4) Using hexoseaminidase assay, we determined the effect of the compounds on cell proliferation. […] […] […] Overall, the analogs can be used as chemotherapeutic agents against colon and pancreatic cancer.

[8] = test system: colon, pancreatic and bladder cancer cells; assay: hexoseaminidase cell proliferation assay, summaries over cell lines; assay type: cell-based; conditions: for inhibition of cell proliferation (in words): dose and time dependent
Experimental: Water solubility studies were performed with the CD/analog complexes. […] The observed IC50 value of THBCD at 48 h is below 10 μM in all the colon, pancreatic and bladder cancer cells.
as §1, §2

PanC-1 cells = assay: colony formation, PanC-1; assay type: cell-based
cancer stem cells = assay: colonosphere formation; assay type: cell-based
Experimental: It was also determined the analogs inhibit colonosphere formation from cancer stem cells. […] The columns are 0, 10, 25, and 50 micromolar concentrations of the compounds labeled by rows.
The effect of the compounds on colonosphere formation was determined. […] Overall, the analogs have shown they can be used as chemotherapeutic agents against colon, pancreatic and bladder cancer.

[9] = test system: HCT116 colon cancer cells; assay: hexoseaminidase cell proliferation assay, HCT116; assay type: cell-based; conditions: Homo sapiens, HCT-116
Excerpt: as §3, §4

KU7 bladder cancer cells = assay: hexoseaminidase cell proliferation assay, KU7; assay type: cell-based
Experimental: as §1

MiaPaCa-2 cells = assay: colony formation, MiaPaCa-2; assay type: cell-based
SW480 cells [10] = assay: cell cycle analysis, SW480; assay type: cell-based
Experimental: The analogs were tested to determine the ability induce death of colon cancer cells.

HCT116 cells [11] = assay: colonosphere formation, HCT116; assay type: cell-based
Excerpt: These compounds may be preferred in some instances.

[12] = test system: transcription factor NF-κB; conditions: previous studies, Cancer Res. 2008; cited from earlier work
[13] = intraperitoneal 5 mg/kg body weight every day for 21 days
[14] = intraperitoneal 2 mg/kg body weight every day for 21 days

Row | SMILES | colony formation (SW480 cells [1]) | IC50 ([2]; MiaPaCa-2, 24 h) [µM] | IC50 ([2]; MiaPaCa-2, 48 h) [µM] | IC50 ([2]; MiaPaCa-2, 72 h) [µM] | colony formation (HCT116 cells [5]) | IC50 ([7]; PANC-1, 24 h) [µM] | IC50 ([7]; PANC-1, 48 h) [µM] | IC50 ([7]; PANC-1, 72 h) [µM] | IC50 (SW480 colon cancer cells; SW480, 24 h) [µM] | IC50 (SW480 colon cancer cells; SW480, 48 h) [µM] | IC50 (SW480 colon cancer cells; SW480, 72 h) [µM] | inhibition of cell proliferation (in words) [8] | IC50 ([9]; HCT116, 24 h) [µM] | IC50 ([9]; HCT116, 48 h) [µM] | IC50 ([9]; HCT116, 72 h) [µM] | G0/G1 (%) (SW480 cells [10]; SW480, 24 h) | G2M/ (%) (SW480 cells [10]; SW480, 24 h) | S (%) (SW480 cells [10]; SW480, 24 h) | SubG0 Dead Cells (%) (SW480 cells [10]; SW480, 24 h) | cell cycle effect (in words) (SW480 cells [10]; SW480, 24 h) | further results
1 | CC(C)(C)C1=CC(=NNC(=O)c2cc3ccccc3cc2O)C=C(C(C)(C)C)C1=O [DBQ] | inhibit colony formation | 25 | 8 | 6 | inhibit colony formation | 45 | 9 | 7 | 10 | 6 | 5 | potent inhibitor | 10 | 5 | 5 |  |  |  |  |  | tumor volume [3, 13]: significantly reduced; tumor weight [3, 13]: significantly reduced; IC50 ([4]; 24 h): 50 µM; IC50 ([4]; 48 h): 25 µM; IC50 ([4]; 72 h): 6 µM; cell cycle effect (in words) (HCT116 cells [6]; 5 μM and 10 μM, 24 hours, propidium iodide flow cytometry): induces G2/M arrest; IC50 ([8]; 48 h, all the colon, pancreatic and bladder cancer cell lines): < 10 µM; colony formation (PanC-1 cells): inhibit colony formation; colonosphere formation (cancer stem cells): potent inhibitors of colonosphere formation; IC50 (KU7 bladder cancer cells; KU7, 24 h): 20 µM; IC50 (KU7 bladder cancer cells; KU7, 48 h): 8 µM; IC50 (KU7 bladder cancer cells; KU7, 72 h): 6 µM; colony formation (MiaPaCa-2 cells): inhibit colony formation
2 | C/C(=N\NC(=O)c1ccncc1)c1ccc2ccccc2c1O [MRL16] |  | > 10 | > 10 | 5 | inhibit colony formation | > 10 | 4 | 2.5 | > 2 | 0.3 | 0.2 | potent inhibitor | > 2 | 0.3 | 0.2 | 59.8 | 19.7 | 19.7 | 0.77 | induces G1 arrest | tumor volume [3, 14]: significantly reduced; tumor weight [3, 14]: significantly reduced; G0/G1 (%) (SW480 cells [10]; SW480, 48 h): 58.4%; G2M/ (%) (SW480 cells [10]; SW480, 48 h): 20.1%; S (%) (SW480 cells [10]; SW480, 48 h): 20.0%; SubG0 Dead Cells (%) (SW480 cells [10]; SW480, 48 h): 1.05%; cell cycle effect (in words) (SW480 cells [10]; SW480, 48 h): S-phase arrest; G0/G1 (%) (HCT116 cells [6]; HCT116, 24 h): 57.3%; G2/M (%) (HCT116 cells [6]; HCT116, 24 h): 26.9%; S (%) (HCT116 cells [6]; HCT116, 24 h): 14.5%; SubG0 Dead Cells (%) (HCT116 cells [6]; HCT116, 24 h): 1.11%; G0/G1 (%) (HCT116 cells [6]; HCT116, 48 h): 63.7%; G2/M (%) (HCT116 cells [6]; HCT116, 48 h): 19.9%; S (%) (HCT116 cells [6]; HCT116, 48 h): 14.4%; SubG0 Dead Cells (%) (HCT116 cells [6]; HCT116, 48 h): 1.70%; cell cycle effect (in words) (HCT116 cells [6]): induces G2/M arrest; IC50 ([8]; 48 hours, Colon cancer cell lines): < 0.3 µM; colonosphere formation (HCT116 cells [11]): inhibits colonosphere formation
3 | C/C(=N\NC(=O)c1cccnc1)c1ccc2ccccc2c1O [MRL17] |  | > 10 | > 10 | 5 | inhibit colony formation | > 10 | 3 | 1 | > 2 | 1 | 0.6 | potent inhibitor | > 2 | 1 | 0.8 | 54.9 | 22.0 | 22.3 | 0.50 | induces G1 arrest | G0/G1 (%) (SW480 cells [10]; SW480, 48 h): 59.3%; G2M/ (%) (SW480 cells [10]; SW480, 48 h): 18.3%; S (%) (SW480 cells [10]; SW480, 48 h): 20.8%; SubG0 Dead Cells (%) (SW480 cells [10]; SW480, 48 h): 1.12%; cell cycle effect (in words) (SW480 cells [10]; SW480, 48 h): S-phase arrest; G0/G1 (%) (HCT116 cells [6]; HCT116, 24 h): 63.9%; G2/M (%) (HCT116 cells [6]; HCT116, 24 h): 20.9%; S (%) (HCT116 cells [6]; HCT116, 24 h): 14.0%; SubG0 Dead Cells (%) (HCT116 cells [6]; HCT116, 24 h): 0.99%; G0/G1 (%) (HCT116 cells [6]; HCT116, 48 h): 63.1%; G2/M (%) (HCT116 cells [6]; HCT116, 48 h): 20.8%; S (%) (HCT116 cells [6]; HCT116, 48 h): 14.3%; SubG0 Dead Cells (%) (HCT116 cells [6]; HCT116, 48 h): 1.57%; cell cycle effect (in words) (HCT116 cells [6]): induces G2/M arrest; colonosphere formation (HCT116 cells [11]): inhibits colonosphere formation
4 | COc1cc(OC)c2ccc(C=O)c(O)c2c1 [MRL, 1-hydroxy-5,7-dimethoxy-2-naphthalene-carboxaldehyde, reference compound] | does not appear to significantly inhibit colony formation | > 50 | > 50 | > 50 | does not appear to significantly inhibit colony formation | > 50 | > 50 | > 50 | > 50 | > 50 | > 50 |  | > 50 | > 50 | > 50 |  |  |  |  |  | G0/G1 (%) (SW480 cells [10]; SW480, Table 3): 65.3%; G2M (%) (SW480 cells [10]; SW480, Table 3): 18.1%; S (%) (SW480 cells [10]; SW480, Table 3): 10.2%; SubG0 Dead Cells (%) (SW480 cells [10]; SW480, Table 3): 6.0%; G0/G1 (%) (HCT116 cells [6]; HCT116, Table 3): 45.3%; G2M (%) (HCT116 cells [6]; HCT116, Table 3): 11.4%; S (%) (HCT116 cells [6]; HCT116, Table 3): 11.5%; SubG0 Dead Cells (%) (HCT116 cells [6]; HCT116, Table 3): 29.9%; action of transcription factor NF-κB [12]: can inhibit

— patent publication US20200102264A1, “MARMELIN ANALOGS AND METHODS OF USE IN CANCER TREATMENT” (THE UNIVERSITY OF KANSAS, priority 2014, published 2020)
